Test results as given in PubChem BioAssay (NCI).
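In this assay, cells in 96-well plates receive the compound at five concentrations for 48 hours. Endpoints are linearly interpolated between the surrounding concentrations. Definition used: TGI = concentration required for complete inhibition of growth.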

Legend:
Assay in all cases: growth of human tumour cells (NCI), 48 h
[1] = system: CCRF-CEM leukemia
[2] = system: HCC-2998 colon
[3] = system: HCT-15 colon
[4] = system: HOP-62 NSCLC
[5] = system: IGROV1 ovarian
[6] = system: OVCAR-8 ovarian
[7] = system: SK-MEL-5 melanoma
[8] = system: SNB-75 CNS
[9] = system: TK-10 renal
[10] = system: UACC-257 melanoma

| Compound | TGI [1] [µM] | TGI [2] [µM] | TGI [3] [µM] | TGI [4] [µM] | TGI [5] [µM] | TGI [6] [µM] | TGI [7] [µM] | TGI [8] [µM] | TGI [9] [µM] | TGI [10] [µM] |
| --- | --- | --- | --- | --- | --- | --- | --- | --- | --- | --- |
| CCc1nnc(CC)n1NCCCC(=O)O | > 100 | > 100 | > 100 | > 100 | > 100 | > 100 | > 100 | > 100 | > 100 | > 100 |
| CC(=O)OCC(=O)[C@@]1(O)CC[C@H]2[C@@H]3CCC4=CC(=O)[C@H](C)C[C@]4(C)[C@H]3[C@@H](O)C[C@@]21C | > 100 | > 100 | > 100 | > 100 | > 100 | > 100 | > 100 | > 100 | > 100 | > 100 |
| O=C(O)C1C(C(=O)O)C2C(=O)C=CC1N2Cc1ccccc1 (stereo unspecified) | 2.75 | 7.71 | 10.3 | 10.5 | 27.1 | > 100 | 17.2 | 6.97 | 11.4 | 11.6 |
| O=S1(=O)c2cnccc2NC(=NCc2cccc3ccccc23)N1c1ccccc1 | > 100 | > 100 | > 100 | > 100 | > 100 | > 100 | > 100 | > 100 | > 100 | > 100 |
| COc1ccc(/C=C2/C(C)=NN(c3cccc(Cl)c3)/C2=N/c2nc3ccccc3s2)cc1 | 92.7 | 33.2 | 36.1 | 47.2 | 46.7 | 49.3 | 33.7 | 86.6 | 68.8 | 55.7 |
| COc1ccc(C2c3cc4c(cc3C(O)C3CCC(=O)N23)OCO4)cc1 (stereo unspecified) | > 100 | > 100 | > 100 | > 100 | > 100 | > 100 | > 100 | > 100 | > 100 | > 100 |
| CCOC(=O)c1ccc(C(=O)OCC)n1-c1cc2cc(c1)CSCc1cc(cc(-n3c(C(=O)OCC)ccc3C(=O)OCC)c1)CSC2 | > 10 | > 10 | > 10 | > 10 | > 10 | > 10 | > 10 | > 10 | > 10 | > 10 |
| C/C(=N\N)C(CN(C)C)C(c1ccccc1)c1c(O)c2ccccc2oc1=O (stereo unspecified) | > 100 | > 100 | > 100 | > 100 | > 100 | > 100 | > 100 | > 100 | > 100 | > 100 |
| O=P(O)(OCC(O)O)OCC(O)O | > 100 | > 100 |  | > 100 | > 100 | > 100 | > 100 | > 100 | > 100 | > 100 |
| CCCCCCn1c(SCC)c2ccccc2c1-c1nc(F)nc(F)n1 | > 100 | > 100 | > 100 | > 100 | > 100 | > 100 | > 100 | > 100 | > 100 | > 100 |
| C/C(CN1C(=O)c2ccccc2C1=O)=N\NS(=O)(=O)c1ccc(Br)cc1 | > 100 | > 100 | > 100 | > 100 | > 100 | > 100 | > 100 | > 100 | > 100 | > 100 |
| Cc1nc2sc(CCl)nn2c(=O)c1Cl | 24.9 | 37.7 | 23.8 | 32.1 | 34.8 | 31.4 | 18.7 | 24.7 | 25 | 29.7 |
| CC(C)OP(=O)(OC(C)C)C(C(C)C)N(C)/C(N)=N\C1=NC(C(F)(F)F)(C(F)(F)F)N=C(C(C(F)(F)F)C(F)(F)F)O1 (stereo unspecified) | 4.88 | 19.5 |  | 18 | 5.77 | 5.28 |  | 11.9 | 13.6 | 10.3 |
| CC1C2CC(CC(=O)N2)C1(C)C (stereo unspecified) | > 100 | > 100 |  | > 100 | > 100 | > 100 | > 100 | > 100 | > 100 | > 100 |
| Cc1c(C#N)c2nnn(C)c(=O)n2c1-c1ccccc1 | > 100 | > 100 | > 100 | > 100 |  | > 100 |  | > 100 | > 100 | > 100 |
| COc1cc(S(=O)(=O)Nc2ccc(-c3csc(N4C(=O)CSC4c4cccs4)n3)cc2)ccc1Cl (stereo unspecified) | 95.1 | 30.7 | > 100 | > 100 | > 100 | > 100 | > 100 | 40.3 |  | 46 |
| O=c1c2cc(S(=O)(=O)Nc3ccccc3Cl)ccc2ncn1NS(=O)(=O)c1ccc(Br)cc1 | > 37.5 | > 37.5 | > 37.5 | > 37.5 | > 37.5 | > 37.5 |  | > 37.5 | > 37.5 | > 37.5 |
| NC(=O)c1cc2ccccc2oc1=Nc1ccccc1 | > 100 | > 100 | > 100 | > 100 | > 100 | > 100 | > 100 | > 100 |  | > 100 |
